The compounds below were run against SARS-CoV-2 3CL protease (Severe acute respiratory syndrome coronavirus 2, UniProt P0DTD1) (assay: biochemical). Settings: 50% SARS-CoV-2 3CL protease inhibitory concentration; RapidFire MS; read-out: IC50.

With Cc1cncc(-n2c(=O)nc(Nc3cc4cn(C)nc4cc3Cl)n(C[C@@H]3CCCN3)c2=O)c1 [II-0085] the IC50 was 9200 nM.

Same assay, conditions: IC50

COC(=O)NC12CC(Nc3nc(=O)n(Cc4ccc[nH]c4=O)c(=O)n3Cc3cc(F)c(F)c(F)c3)(C1)C2 [II-0062] and CC(C)(C)OC(=O)NC12CC(Nc3nc(=O)n(Cc4ccc[nH]c4=O)c(=O)n3Cc3cc(F)c(F)c(F)c3)(C1)C2 [II-0209] cannot be ordered by IC50: under 100 nM for the first, under 100 nM for the second.

Cc1cncc(-n2c(=O)nc(Nc3cc4sc(NCC5CC5)nc4cc3Cl)n(Cc3ccc(F)c(C#N)c3)c2=O)c1 [II-0081] and Cc1cncc(-n2c(=O)nc(Nc3cc4sc(NS(C)(=O)=O)nc4cc3Cl)n(Cc3ccc(F)c(C#N)c3)c2=O)c1 [II-0427] cannot be ordered by IC50: under 100 nM for the first, under 100 nM for the second.

CC(=O)Nc1nc2cc(Cl)c(Nc3nc(=O)n(Cc4ncn(C)n4)c(=O)n3Cc3ccc(F)c(C#N)c3)cc2s1 [II-0083] and CC(=O)Nc1nc2cc(Cl)c(Nc3nc(=O)n(Cc4ncn(C)n4)c(=O)n3Cc3cc(F)c(F)c(F)c3)cc2s1 [II-0310] cannot be ordered by IC50: under 100 nM for the first, under 100 nM for the second.

Going from Cc1cncc(-n2c(=O)nc(Nc3cc4cn(C)nc4cc3Cl)n(C[C@@H]3CCCN3C(=O)CNC(=O)C(F)(F)F)c2=O)c1 [II-0086] to CNc1nc2cc(F)c(Nc3nc(=O)n(-c4cncc(C)c4)c(=O)n3Cc3cc(F)c(F)c(Cl)c3)cc2s1 [II-0293], the IC50 falls from 3400 nM to under 100 nM. The second is the more potent here.

Compared with Cn1cc2cc(Nc3nc(=O)n(Cc4nc[nH]n4)c(=O)n3Cc3cc(F)c(F)cc3F)c(Cl)cc2n1 [II-0091], Cn1cc2cc(Nc3nc(=O)n(Cc4cc5[nH]cnc5cn4)c(=O)n3Cc3cc(F)c(F)cc3F)c(Cl)cc2n1 [II-0256] is higher in IC50: under 100 nM for the first, 160 nM for the second.

COc1ccnc(NC23CC(Nc4nc(=O)n(Cc5ncn(C)n5)c(=O)n4Cc4cc(F)c(F)c(F)c4)(C2)C3)n1 [II-0113] and COc1cnc(NC23CC(Nc4nc(=O)n(Cc5ccc[nH]c5=O)c(=O)n4Cc4cc(F)c(F)c(F)c4)(C2)C3)nc1 [II-0441] cannot be ordered by IC50: under 100 nM for the first, under 100 nM for the second.

Going from COc1ncc(Nc2nc(=O)n(-c3cncc(C)c3)c(=O)n2Cc2ccc(F)c(C#N)c2)c(C)n1 [II-0124] to Cc1cncc(-n2c(=O)nc(Nc3cc4c(cc3C)nc(C)n4C)n(Cc3ccc(F)c(C#N)c3)c2=O)c1 [II-0358], the IC50 falls from 3300 nM to under 100 nM.

Cn1cnc(Cn2c(=O)nc(Nc3cc4cn(CC(=O)N5CCCCC5)nc4cc3Cl)n(Cc3cc(Cl)c(F)cc3F)c2=O)n1 [II-0134] and Cn1cnc(Cn2c(=O)nc(Nc3cc4cn(CC(=O)N5CCCC5)nc4cc3Cl)n(Cc3cc(Cl)c(F)cc3F)c2=O)n1 [II-0138] cannot be ordered by IC50: under 100 nM for the first, under 100 nM for the second.

COCCN(C)C(=O)Cn1cc2cc(Nc3nc(=O)n(Cc4ncn(C)n4)c(=O)n3Cc3cc(Cl)c(F)cc3F)c(Cl)cc2n1 [II-0135] and CN(C)C(=O)Cn1cc2cc(Nc3nc(=O)n(Cc4ncn(C)n4)c(=O)n3Cc3cc(Cl)c(F)cc3F)c(Cl)cc2n1 [II-0276] cannot be ordered by IC50: under 100 nM for the first, under 100 nM for the second.

Cn1cnc(Cn2c(=O)nc(Nc3cc4cn(CC(=O)N5CC(F)(F)C5)nc4cc3Cl)n(Cc3cc(Cl)c(F)cc3F)c2=O)n1 [II-0136] and Cn1cnc(Cn2c(=O)nc(Nc3cc4cn(CC(=O)N5CC(F)(F)C5)nc4cc3Cl)n(Cc3cc(F)c(F)c(Cl)c3)c2=O)n1 [II-0143] cannot be ordered by IC50: under 100 nM for the first, under 100 nM for the second.

CNC(=O)Cn1cc2cc(Nc3nc(=O)n(Cc4ncn(C)n4)c(=O)n3Cc3cc(Cl)c(F)cc3F)c(Cl)cc2n1 [II-0137] and CCNC(=O)Cn1cc2cc(Nc3nc(=O)n(Cc4ncn(C)n4)c(=O)n3Cc3cc(Cl)c(F)cc3F)c(Cl)cc2n1 [II-0151] cannot be ordered by IC50: under 100 nM for the first, under 100 nM for the second.

Cn1cnc(Cn2c(=O)nc(Nc3cc4cn(CC(=O)N5CCOCC5)nc4cc3Cl)n(Cc3cc(F)c(F)c(Cl)c3)c2=O)n1 [II-0139] and Cn1cnc(Cn2c(=O)nc(Nc3cc4cn(CC(=O)N5CCC5)nc4cc3Cl)n(Cc3cc(F)c(F)c(Cl)c3)c2=O)n1 [II-0153] cannot be ordered by IC50: under 100 nM for the first, under 100 nM for the second.

COCCN(C)C(=O)Cn1cc2cc(Nc3nc(=O)n(Cc4ncn(C)n4)c(=O)n3Cc3cc(F)c(F)c(Cl)c3)c(Cl)cc2n1 [II-0141] and CN(C)C(=O)Cn1cc2cc(Nc3nc(=O)n(Cc4ncn(C)n4)c(=O)n3Cc3cc(F)c(F)c(Cl)c3)c(Cl)cc2n1 [II-0277] cannot be ordered by IC50: under 100 nM for the first, under 100 nM for the second.

Cn1cnc(Cn2c(=O)nc(Nc3cc4cn(CC(=O)N5CCCCC5)nc4cc3Cl)n(Cc3cc(F)c(F)c(Cl)c3)c2=O)n1 [II-0142] and Cn1cnc(Cn2c(=O)nc(Nc3cc4cn(CC(=O)N5CCCC5)nc4cc3Cl)n(Cc3cc(F)c(F)c(Cl)c3)c2=O)n1 [II-0147] cannot be ordered by IC50: under 100 nM for the first, under 100 nM for the second.

CNC(=O)Cn1cc2cc(Nc3nc(=O)n(Cc4ncn(C)n4)c(=O)n3Cc3cc(F)c(F)c(Cl)c3)c(Cl)cc2n1 [II-0145] and CCNC(=O)Cn1cc2cc(Nc3nc(=O)n(Cc4ncn(C)n4)c(=O)n3Cc3cc(F)c(F)c(Cl)c3)c(Cl)cc2n1 [II-0150] cannot be ordered by IC50: under 100 nM for the first, under 100 nM for the second.

CN(C(=O)Cn1cc2cc(Nc3nc(=O)n(Cc4ncn(C)n4)c(=O)n3Cc3cc(Cl)c(F)cc3F)c(Cl)cc2n1)C1CC1 [II-0146] and CN(C(=O)Cn1cc2cc(Nc3nc(=O)n(Cc4ncn(C)n4)c(=O)n3Cc3cc(F)c(F)c(Cl)c3)c(Cl)cc2n1)C1CC1 [II-0155] cannot be ordered by IC50: under 100 nM for the first, under 100 nM for the second.

Cn1cnc(Cn2c(=O)nc(Nc3cc4cn(CC(=O)NC5CC5)nc4cc3Cl)n(Cc3cc(Cl)c(F)cc3F)c2=O)n1 [II-0148] and Cn1cnc(Cn2c(=O)nc(Nc3cc4cn(CC(=O)NC5CC5)nc4cc3Cl)n(Cc3cc(F)c(F)c(Cl)c3)c2=O)n1 [II-0152] cannot be ordered by IC50: under 100 nM for the first, under 100 nM for the second.

Cn1cnc(Cn2c(=O)nc(Nc3cc4cn(CC(=O)N5CCC5)nc4cc3Cl)n(Cc3cc(Cl)c(F)cc3F)c2=O)n1 [II-0149] and Cn1cnc(Cn2c(=O)nc(Nc3cc4cn(CC(=O)O)nc4cc3Cl)n(Cc3cc(Cl)c(F)cc3F)c2=O)n1 [II-0319] cannot be ordered by IC50: under 100 nM for the first, under 100 nM for the second.

CC(=O)Nc1nc2ccc(Nc3nc(=O)n(-c4cncc5ccccc45)c(=O)n3Cc3ccc(F)c(C#N)c3)cc2s1 [II-0170] and Cc1cncc(-n2c(=O)nc(Nc3ccc4[nH]ncc4c3)n(Cc3ccc(F)c(C#N)c3)c2=O)c1 [II-0206] cannot be ordered by IC50: under 100 nM for the first, under 100 nM for the second.

Going from Cn1cnc(Cn2c(=O)nc(Nc3cc4cn(C)nc4cc3Cl)n(Cc3cc(F)cc4c3OCOC4)c2=O)n1 [II-0211] to Cn1cnc(Cn2c(=O)nc(Nc3cc4cn(C)nc4cc3Cl)n(Cc3cc(Cl)ccc3O)c2=O)n1 [II-0428], the IC50 rises from under 100 nM to 840 nM.

Going from COC(=O)c1cccc2c1CN(c1nc(=O)n(Cc3ccc[nH]c3=O)c(=O)n1Cc1cc(F)c(F)c(F)c1)C2 [II-0216] to C[C@H](Nc1nc(=O)n(Cc2ccc[nH]c2=O)c(=O)n1Cc1cc(F)c(F)c(F)c1)c1ccccc1 [II-0230], the IC50 rises from under 100 nM to 550 nM. The first is the more potent here.

Cn1cnc(Cn2c(=O)nc(Nc3cc4cn(C)nc4cc3Cl)n(Cc3cccc4cccnc34)c2=O)n1 [II-0224] and Cn1cnc(Cn2c(=O)nc(Nc3cc4cn(C)nc4cc3Cl)n(Cc3c4ccccc4cc4ccccc34)c2=O)n1 [II-0225] are within 1.5-fold of each other in IC50: 1900 nM for the first, 2700 nM for the second.

First: O=c1[nH]cccc1Cn1c(=O)nc(NC(c2ccccc2)c2ccccc2O)n(Cc2cc(F)c(F)c(F)c2)c1=O (centres unmarked) [II-0229]
Second: COc1ccc(Cc2nc(=O)n(Cc3ccc[nH]c3=O)c(=O)n2Cc2cc(F)c(F)c(F)c2)cc1 [II-0327]
The IC50 of the first is 6-fold lower: 250 nM for the first, 1500 nM for the second. The first is the more potent here.

Compared with O=c1[nH]cccc1Cn1c(=O)nc(NC2CC(F)(F)C2)n(Cc2cc(F)c(F)c(F)c2)c1=O [II-0231], O=c1[nH]cccc1Cn1c(=O)nc(N[C@@H]2CCN(c3ccccn3)C2)n(Cc2cc(F)c(F)c(F)c2)c1=O [II-0374] is 4-fold higher in IC50: 880 nM for the first, 3500 nM for the second. The first is the more potent here.

CC(=O)NCCn1cc2cc(Nc3nc(=O)n(Cc4ccccn4)c(=O)n3Cc3cc(F)c(F)cc3F)c(Cl)cc2n1 [II-0248] and CN(C)C(=O)Cn1cc2cc(Nc3nc(=O)n(Cc4ncn(C)n4)c(=O)n3Cc3cc(F)c(F)cc3F)c(Cl)cc2n1 [II-0280] cannot be ordered by IC50: under 100 nM for the first, under 100 nM for the second.

CNc1nc2cc(Cl)c(Nc3nc(=O)n(Cc4ncn(C)n4)c(=O)n3Cc3cc(Cl)c(F)cn3)cc2s1 [II-0266] and CCNc1nc2cc(Cl)c(Nc3nc(=O)n(Cc4ncn(C)n4)c(=O)n3Cc3cc(Cl)c(F)cn3)cc2s1 [II-0340] cannot be ordered by IC50: under 100 nM for the first, under 100 nM for the second.

CCn1cc2cc(Nc3nc(=O)n(Cc4ncn(C)n4)c(=O)n3Cc3cc(Cl)c(F)cn3)c(Cl)cc2n1 [II-0268] and Cn1cnc(Cn2c(=O)nc(Nc3cc4cn(CC(=O)O)nc4cc3Cl)n(Cc3cc(F)c(F)c(Cl)c3)c2=O)n1 [II-0321] cannot be ordered by IC50: under 100 nM for the first, under 100 nM for the second.

First: COc1ccc(Nc2nc(=O)n(CC3(C)COC3)c(=O)n2Cc2cc(F)c(F)c(F)c2)cc1 [II-0274]
Second: COc1ccc(Nc2nc(=O)n(Cc3cc(C(=O)NCc4cnn(C)c4)c[nH]c3=O)c(=O)n2Cc2cc(F)c(F)c(F)c2)cc1 [II-0324]
The IC50 of the first is higher: 3000 nM for the first, under 100 nM for the second. The second is the more potent here.

CNC(=O)c1cnc2[nH]c(=O)c(Cn3c(=O)nc(Nc4ccc5c(c4)CCO5)n(Cc4cc(F)c(F)c(F)c4)c3=O)cc2c1 [II-0314] and NC(=O)c1cnc2[nH]c(=O)c(Cn3c(=O)nc(Nc4ccc5c(c4)CCO5)n(Cc4cc(F)c(F)c(F)c4)c3=O)cc2c1 [II-0317] cannot be ordered by IC50: under 100 nM for the first, under 100 nM for the second.

CN(C)C(=O)c1cnc2[nH]c(=O)c(Cn3c(=O)nc(Nc4ccc5c(c4)CCO5)n(Cc4cc(F)c(F)c(F)c4)c3=O)cc2c1 [II-0315] and COc1ccc(Nc2nc(=O)n(Cc3cc(C(=O)NCc4ccn(C)n4)c[nH]c3=O)c(=O)n2Cc2cc(F)c(F)c(F)c2)cc1 [II-0325] cannot be ordered by IC50: under 100 nM for the first, under 100 nM for the second.

First: CNC(=O)Cn1c(=O)[nH]/c(=N\c2cc3cn(C)nc3cc2Cl)n(Cc2cc(F)c(F)c(F)c2)c1=O [II-0328]
Second: CNC(=O)Cn1c(=O)[nH]/c(=N\c2ccc(OC(F)F)cc2C)n(Cc2cc(F)c(F)c(F)c2)c1=O [II-0331]
The IC50 of the first is lower: under 100 nM for the first, 1000 to 10000 nM for the second.

CN(C)C(=O)CCn1cc2cc(Nc3nc(=O)n(Cc4ncn(C)n4)c(=O)n3Cc3cc(Cl)c(F)cc3F)c(Cl)cc2n1 [II-0338] and Cn1cnc(Cn2c(=O)nc(Nc3cc4c(cc3Cl)nc3n4CCN3)n(Cc3cc(F)c(F)c(Cl)c3)c2=O)n1 [II-0411] cannot be ordered by IC50: under 100 nM for the first, under 100 nM for the second.

Cc1cncc(-n2c(=O)nc(Nc3ccc4nnn(C)c4c3)n(Cc3ccc(F)c(C#N)c3)c2=O)c1 [II-0357] and Cn1cnc(Cn2c(=O)cc(Nc3cc4cn(C)nc4cc3Cl)n(Cc3ccc(F)c(C#N)c3)c2=O)n1 [II-0379] cannot be ordered by IC50: under 100 nM for the first, under 100 nM for the second.

Cn1cnc(Cn2c(=O)cc(Nc3cc4cn(CC(F)F)nc4cc3Cl)n(Cc3ccc(F)c(C#N)c3)c2=O)n1 [II-0432] was tested, and the IC50 was under 100 nM.

— patent US12559474B2, “Triazine derivatives having virus replication inhibitory activity and pharmaceutical composition comprising the same” (priority 2021, dated 2026)
